Laboratory results reported in US8034314B2, “Photoreactive compound specifically binding to calcium binding proteins” (priority 2004, dated 2011).

Assays:
Lactate dehydrogenase = Lactate dehydrogenase activity; assay type: biochemical; details: AzRu 100 μM; mean ± SEM
Description: (§1) Unlabelled ryanodine was obtained from Calbiochem. […] Ruthenium chloride was purchased from Aldrich.

Catalase = biological target: T1, Catalase (Bos taurus, UniProt P00432); assay: Catalase activity; assay type: biochemical, bovine; details: AzRu 100 μM; mean ± SEM
T1 construct: bovine liver catalase; purchased Sigma; host or cells: bovine liver
Description: as §1

Alkaline phosphatase = details: AzRu 100 μM; mean ± SEM
Description: Aldolase, alkaline phosphatase, ATP, bovine liver catalase, choline oxidase, CM-cellulose, n-decane, glucose 6-phosphate dehydrogenase, glutamate dehydrogenase, glyceraldehyde 3-phosphate dehydrogenase, Hepes, yeast hexokinase, lactate dehydrogenase, leupeptin, luciferase, mannitol, horseradish peroxidase, PMSF, pyruvate kinase, soybean asolectin, sucrose, Tris and Triton X-100 were purchased from Sigma (St. Louis, Mo., USA). [^45Ca], [^103Ru] and [^3H]ryanodine were purchased from NEN® Life Science Products, Inc. (Boston, USA). Unlabelled ryanodine was obtained from Calbiochem. Sephadex LH-20 was purchased from Amersham Biosciences. n-Octyl-β-D-glucopyranoside (β-OG) was obtained from Bachem AG (Germany). Lauryl-(dimethyl)-amineoxide (LDAO) and ruthenium red (98% pure) were obtained from Fluka (Chemie, GmbH). Ruthenium chloride was purchased from Aldrich. Hydroxyapatite (Bio-Gel HTP) was purchased from Bio-Rad Laboratories (Hercules, Calif.) and Celite from Merck. Synthetic firefly D-luciferin reagent was purchased from Biosynth AG.

[1] = test system: Ca2+-dependent mitochondrial swelling (PTP opening); assay: Ca2+-dependent mitochondrial swelling (PTP opening); assay type: biochemical, rat; details: AzRu 20 μM; PTP opening was completely inhibited at this concentration
Experimental: (§2) Sarcoplasmic reticulum (SR) membranes were prepared from rabbit fast twitch skeletal muscle as described by Saito [Saito et al.: J. Cell Biol. 99 (1984) 875-85]. Mitochondria were isolated from rat liver as described by us previously [Gincel D. et al.: Biochem J. 358 (2001) 147-55]. VDAC was purified by a method developed in our laboratory, using columns of hydroxyapatite and reactive red agarose [Gincel D. et al.: J. Bioenerget. Biomembr. 32 (2000) 571-83].

Luciferase = biological target: T2, Luciferase (Photinus pyralis, UniProt P08659); assay: Luciferase activity; assay type: biochemical; details: mean ± SEM
T2 construct: purchased Sigma
Description: as §1

[2] = test system: U-937 human monocytic cell line; assay: STS-induced apoptotic cell death of U-937 cells (acridine orange/ethidium bromide staining); assay type: cell-based; details: for Reduction of STS-activated apoptotic cell death: AzRu 10 μM added 18 h before STS 1.25 μM
Experimental: The U-937 human monocytic cell line was grown under an atmosphere of 95% air and 5% CO2 in RPMI 1640 supplemented with 10% fetal calf serum (FCS), 1 mM L-glutamine, 100 U/ml penicillin, and 100 μg/ml streptomycin. Cells were plated at a density of 5.4×10^4 cells/cm^2 in 24-well plates and then incubated with or without AzRu for 18 hr before exposure to 1.25 μM staurosporine (STS) to induce apoptosis. Cell viability was analyzed 5 and 7 hrs after STS addition by staining with 100 μg/ml acridine orange (AcOr) and 100 μg/ml ethidium bromide (EtBr) in PBS. The cells were then visualized by fluorescence microscopy (Olympus IX51) and images were recorded on an Olympus DP70 camera, using an SWB filter.
AzRu had no effect on the viability of the cells that were not exposed to STS. In FIG. 13 A, U-937 cells were incubated without (a, c) or with AzRu (10 μM) (b,d) for 18 hrs and thereafter were exposed to STS (1.25 μM) (c and d). After five hours the cells were stained with acridine orange and ethidium bromide. Arrows indicate cells in early apoptotic state, represented as degraded nucleus, but with intact cell membrane (stained by acridine orange). Arrowheads indicate a late apoptotic state, as shown by the presence of a degraded nucleus (stained by both acridine orange and ethidium bromide). Scale bar, 20 μm. In FIG. 13 B, quantitative analysis of apoptotic cell death in control cells and cells exposed to AzRu was assessed 5 and 7 hr after their exposure to STS (1.25 by ANOVA and t-test. P<0.001 was considered statistically significant (***). Data are the means±SEM, n=3. In each independent experiment, approximately 200 cells were counted for each treatment.

[3] = test system: Succinate-cytochrome c oxido-reductase; assay: Electron transport from succinate to cytochrome c in mitochondria; assay type: biochemical, rat
Experimental: as §2
(§3) Ca^2+-accumulation in freshly prepared mitochondria (0.5 mg/ml) was assayed for 1 to 20 minutes at 30° C. in the presence of 225 mM mannitol, 75 mM sucrose, 120 μM CaCl2 (containing 3×10^4 cpm/nmol ^45Ca^2+), 5 mM HEPES/KOH pH 7.0, and 5 mM succinate with 0.1 mM Pi, or 4 mM MgCl2 with 3 mM ATP. The Ca^2+-uptake was terminated by rapid Millipore filtration, followed by a wash with 5 ml of 0.15 M KCl. The Ca^2+-accumulation in SR was determined as described previously [Shoshan-Barmatz V. & Shaineberg A.: Biochim. Biophys. Acta 1065 (1991) 82-8]. Electron transport from succinate to cytochrome c was described in above cited article [Gincel D. et al.: J. Bioenerget. Biomembr. 32 (2000) 571-83].
The effect of AzRu on mitochondrial process of electron transport from the donor succinate to the acceptor cytochrome c was characterized as described above. […]

CaMKII-dependent GAPDH = CaMKII-dependent GAPDH activity; assay type: biochemical; details: AzRu 20 μM; mean ± SEM
[4] = test system: glucose 6-phosphate dehydrogenase; assay: G-6-P dehydrogenase activity; assay type: biochemical; details: AzRu 100 μM; mean ± SEM
Description: as §1

Choline oxidase = biological target: T3, Choline oxidase (Arthrobacter globiformis, UniProt Q7X2H8); assay: Choline oxidase activity; assay type: biochemical; details: AzRu 100 μM; mean ± SEM
T3 construct: purchased Sigma
Description: as §1

Pyruvate kinase = biological target: T4, Pyruvate kinase (Oryctolagus cuniculus, UniProt P11974); assay: Pyruvate kinase activity; assay type: biochemical; details: mean ± SEM
T4 construct: purchased Sigma
Description: as §1

Glutamate dehydrogenase = Glutamate dehydrogenase activity; assay type: biochemical; details: AzRu 100 μM; mean ± SEM
Description: as §1

[5] = biological target: T5, ryanodine receptor (RyR) / Ca2+-release channel (Oryctolagus cuniculus, UniProt P11716); assay: [3H]ryanodine binding to SR membranes; design: species or system rabbit
T5 construct: from tissue; host or cells: rabbit fast twitch skeletal muscle SR membranes
T5 sequence (P11716 whole entry): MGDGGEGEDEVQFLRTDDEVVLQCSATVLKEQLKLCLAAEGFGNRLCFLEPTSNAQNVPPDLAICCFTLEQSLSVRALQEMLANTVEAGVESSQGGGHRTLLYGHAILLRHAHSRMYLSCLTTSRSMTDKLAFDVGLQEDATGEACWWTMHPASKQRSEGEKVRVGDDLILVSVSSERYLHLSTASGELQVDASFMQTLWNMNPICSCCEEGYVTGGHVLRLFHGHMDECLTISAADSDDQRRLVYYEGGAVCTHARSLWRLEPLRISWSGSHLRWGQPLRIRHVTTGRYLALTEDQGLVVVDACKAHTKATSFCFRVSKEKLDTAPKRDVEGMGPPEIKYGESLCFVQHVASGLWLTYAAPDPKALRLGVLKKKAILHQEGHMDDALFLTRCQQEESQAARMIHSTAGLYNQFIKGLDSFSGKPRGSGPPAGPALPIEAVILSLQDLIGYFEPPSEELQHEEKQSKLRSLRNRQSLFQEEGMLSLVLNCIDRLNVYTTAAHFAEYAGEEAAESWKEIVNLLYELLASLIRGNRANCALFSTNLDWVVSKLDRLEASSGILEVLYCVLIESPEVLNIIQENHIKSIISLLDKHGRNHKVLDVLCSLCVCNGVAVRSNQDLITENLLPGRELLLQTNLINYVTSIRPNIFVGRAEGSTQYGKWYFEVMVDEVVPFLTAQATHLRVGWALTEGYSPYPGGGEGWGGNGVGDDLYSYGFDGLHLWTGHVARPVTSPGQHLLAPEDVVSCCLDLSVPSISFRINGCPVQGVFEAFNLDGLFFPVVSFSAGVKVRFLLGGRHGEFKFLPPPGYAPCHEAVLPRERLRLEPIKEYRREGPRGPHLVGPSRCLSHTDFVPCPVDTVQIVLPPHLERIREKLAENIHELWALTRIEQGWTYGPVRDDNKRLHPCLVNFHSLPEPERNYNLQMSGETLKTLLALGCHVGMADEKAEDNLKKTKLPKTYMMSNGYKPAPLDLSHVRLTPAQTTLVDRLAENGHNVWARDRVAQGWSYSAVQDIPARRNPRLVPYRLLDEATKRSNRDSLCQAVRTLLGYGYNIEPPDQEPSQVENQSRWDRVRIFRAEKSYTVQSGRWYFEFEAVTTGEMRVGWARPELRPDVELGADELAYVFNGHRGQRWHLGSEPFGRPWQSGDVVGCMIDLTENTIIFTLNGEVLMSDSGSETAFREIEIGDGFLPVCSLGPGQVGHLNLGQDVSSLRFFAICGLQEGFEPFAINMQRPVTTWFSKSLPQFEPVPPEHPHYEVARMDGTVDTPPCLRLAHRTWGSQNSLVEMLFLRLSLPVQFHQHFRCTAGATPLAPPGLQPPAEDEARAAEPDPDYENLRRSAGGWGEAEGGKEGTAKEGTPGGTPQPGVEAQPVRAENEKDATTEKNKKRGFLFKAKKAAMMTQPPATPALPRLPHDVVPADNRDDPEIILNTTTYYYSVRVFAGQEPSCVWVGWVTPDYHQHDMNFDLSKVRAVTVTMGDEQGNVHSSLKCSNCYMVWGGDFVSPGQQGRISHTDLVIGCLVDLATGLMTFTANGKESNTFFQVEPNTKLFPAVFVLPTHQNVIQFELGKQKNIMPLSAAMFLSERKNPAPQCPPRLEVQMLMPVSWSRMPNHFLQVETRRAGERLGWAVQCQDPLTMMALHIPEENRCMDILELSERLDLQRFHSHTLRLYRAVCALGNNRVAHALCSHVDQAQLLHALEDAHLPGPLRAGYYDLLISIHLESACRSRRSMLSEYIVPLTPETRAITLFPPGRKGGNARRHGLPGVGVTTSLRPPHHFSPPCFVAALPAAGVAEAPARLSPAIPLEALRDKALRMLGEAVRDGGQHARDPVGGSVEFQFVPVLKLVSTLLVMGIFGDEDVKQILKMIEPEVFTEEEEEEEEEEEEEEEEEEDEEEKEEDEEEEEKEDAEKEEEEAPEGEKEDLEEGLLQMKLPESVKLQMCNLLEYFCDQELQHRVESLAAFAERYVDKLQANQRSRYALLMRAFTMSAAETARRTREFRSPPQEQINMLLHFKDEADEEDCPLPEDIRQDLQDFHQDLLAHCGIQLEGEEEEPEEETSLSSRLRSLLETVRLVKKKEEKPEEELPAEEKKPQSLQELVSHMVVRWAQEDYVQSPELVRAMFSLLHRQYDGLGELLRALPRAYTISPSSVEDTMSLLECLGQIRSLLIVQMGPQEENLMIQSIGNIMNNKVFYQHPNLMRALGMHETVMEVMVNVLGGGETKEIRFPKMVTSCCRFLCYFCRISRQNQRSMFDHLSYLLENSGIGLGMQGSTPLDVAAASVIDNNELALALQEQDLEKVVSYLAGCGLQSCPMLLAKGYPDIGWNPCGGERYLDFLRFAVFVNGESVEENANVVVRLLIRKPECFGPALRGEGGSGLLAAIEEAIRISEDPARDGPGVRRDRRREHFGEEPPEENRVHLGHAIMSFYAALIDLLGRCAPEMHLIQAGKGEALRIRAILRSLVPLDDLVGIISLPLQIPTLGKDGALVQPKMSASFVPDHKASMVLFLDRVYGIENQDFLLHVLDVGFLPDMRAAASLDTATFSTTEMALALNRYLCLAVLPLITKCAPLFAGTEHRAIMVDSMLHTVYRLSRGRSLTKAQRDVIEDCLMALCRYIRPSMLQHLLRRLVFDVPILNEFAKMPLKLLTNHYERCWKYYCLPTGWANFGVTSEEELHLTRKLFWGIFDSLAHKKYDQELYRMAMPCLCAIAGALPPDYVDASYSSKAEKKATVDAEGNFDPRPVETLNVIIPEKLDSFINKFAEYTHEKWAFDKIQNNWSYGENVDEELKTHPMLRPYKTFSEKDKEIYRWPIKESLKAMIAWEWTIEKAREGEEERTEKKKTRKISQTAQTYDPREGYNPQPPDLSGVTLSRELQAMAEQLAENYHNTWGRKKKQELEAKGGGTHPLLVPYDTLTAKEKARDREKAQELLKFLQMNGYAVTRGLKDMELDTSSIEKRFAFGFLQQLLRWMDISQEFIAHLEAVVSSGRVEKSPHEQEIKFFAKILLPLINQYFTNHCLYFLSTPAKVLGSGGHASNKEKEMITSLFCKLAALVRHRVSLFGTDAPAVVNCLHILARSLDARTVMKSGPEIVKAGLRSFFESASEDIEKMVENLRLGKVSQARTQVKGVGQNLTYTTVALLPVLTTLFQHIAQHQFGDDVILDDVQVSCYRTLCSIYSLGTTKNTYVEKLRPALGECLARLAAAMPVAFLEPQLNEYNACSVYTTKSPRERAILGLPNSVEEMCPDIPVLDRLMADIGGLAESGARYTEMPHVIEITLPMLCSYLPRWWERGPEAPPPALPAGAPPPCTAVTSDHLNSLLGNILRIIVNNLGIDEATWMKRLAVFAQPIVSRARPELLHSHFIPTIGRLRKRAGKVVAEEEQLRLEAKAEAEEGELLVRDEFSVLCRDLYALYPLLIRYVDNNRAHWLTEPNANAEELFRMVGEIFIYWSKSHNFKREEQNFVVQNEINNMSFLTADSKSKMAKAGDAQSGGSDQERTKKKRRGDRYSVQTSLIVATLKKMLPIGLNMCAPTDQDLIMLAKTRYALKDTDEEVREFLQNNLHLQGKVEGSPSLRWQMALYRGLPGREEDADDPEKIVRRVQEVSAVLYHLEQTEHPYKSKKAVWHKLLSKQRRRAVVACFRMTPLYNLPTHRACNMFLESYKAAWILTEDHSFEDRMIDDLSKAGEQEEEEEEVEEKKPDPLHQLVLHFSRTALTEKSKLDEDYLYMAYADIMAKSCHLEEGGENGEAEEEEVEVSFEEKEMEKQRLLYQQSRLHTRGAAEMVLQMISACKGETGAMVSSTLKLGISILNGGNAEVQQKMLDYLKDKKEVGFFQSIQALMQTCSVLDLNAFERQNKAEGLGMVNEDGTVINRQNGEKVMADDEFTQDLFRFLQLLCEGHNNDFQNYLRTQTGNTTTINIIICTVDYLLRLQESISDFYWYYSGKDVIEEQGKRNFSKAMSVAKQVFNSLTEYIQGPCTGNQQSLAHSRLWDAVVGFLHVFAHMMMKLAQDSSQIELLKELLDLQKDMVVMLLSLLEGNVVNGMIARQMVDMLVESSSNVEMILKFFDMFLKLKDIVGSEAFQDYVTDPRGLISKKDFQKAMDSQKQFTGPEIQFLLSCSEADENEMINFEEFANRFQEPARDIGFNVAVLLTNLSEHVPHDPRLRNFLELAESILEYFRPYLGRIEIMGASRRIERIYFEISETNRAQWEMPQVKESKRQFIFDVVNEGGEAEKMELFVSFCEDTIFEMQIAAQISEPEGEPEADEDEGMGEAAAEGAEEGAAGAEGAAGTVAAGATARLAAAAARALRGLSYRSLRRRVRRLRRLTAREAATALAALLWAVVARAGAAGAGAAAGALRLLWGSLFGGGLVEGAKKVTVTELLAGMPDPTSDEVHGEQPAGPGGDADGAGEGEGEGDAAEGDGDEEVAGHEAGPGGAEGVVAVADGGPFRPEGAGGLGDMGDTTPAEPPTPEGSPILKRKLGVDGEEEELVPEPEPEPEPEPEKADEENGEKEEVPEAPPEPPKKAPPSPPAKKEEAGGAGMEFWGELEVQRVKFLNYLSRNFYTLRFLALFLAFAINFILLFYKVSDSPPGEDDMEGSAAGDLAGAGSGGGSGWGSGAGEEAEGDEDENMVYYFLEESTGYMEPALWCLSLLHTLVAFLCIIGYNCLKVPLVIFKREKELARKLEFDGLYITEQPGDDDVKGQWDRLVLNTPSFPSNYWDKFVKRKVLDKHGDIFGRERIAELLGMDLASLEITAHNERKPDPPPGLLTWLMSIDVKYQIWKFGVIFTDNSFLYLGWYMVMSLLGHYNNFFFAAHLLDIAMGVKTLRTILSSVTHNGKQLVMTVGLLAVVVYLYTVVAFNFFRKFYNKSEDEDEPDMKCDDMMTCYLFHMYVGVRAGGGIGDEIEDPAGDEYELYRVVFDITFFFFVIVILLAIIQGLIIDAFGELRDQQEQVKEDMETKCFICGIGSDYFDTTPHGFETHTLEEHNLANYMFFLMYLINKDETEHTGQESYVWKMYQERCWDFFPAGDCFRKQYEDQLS
Experimental: as §2
For the determination of [^3H]ryanodine binding, SR membranes were incubated for 20-60 min at 37° C. in a standard binding solution containing 1M NaCl, 20 mM MOPS (pH 7.4), 50 μM free Ca^2+ and 20 nM [^3H]ryanodine. Unbound ryanodine was separated from protein-bound ryanodine by vacuum filtration of the sample through nitrocellulose filters (0.45 μm), followed by two washes with 4 ml ice-cold buffer containing 0.2 M NaCl, 10 mM MOPS (pH 7.4) and 50 μM CaCl2. The retained radioactivity in the dried filters was determined by liquid scintillation counting. Specific binding of [^3H]ryanodine was defined as the difference between the binding in the presence of 20 nM [^3H]ryanodine and in the presence of 20 μM unlabeled ryanodine.
(§4) The hexavalent RuR and the trivalent Ru360 have been employed in various studies as inhibitors of Ca^2+-dependent reactions. As shown here, even with no photoactivation, AzRu, in contrast to RuR and Ru360, was effective in inhibiting the SR Ca^2+-pump (Table 3). […] This may open the way to inhibit other Ca^2+-dependent activities that are not sensitive to RuR, such as the plasma membrane Ca^2+-ATPase. […] RuR was employed to improve mitochondrial production in ischemic reperfused pig myocardium, was employed in the nervous system to follow neuronal death progress and can act as an anti-oxidant in certain conditions. Considering the potent activity of AzRu in RuR-insensitive reactions (see Table 3), its applications in various biological studies should be explored. Ca^2+ accumulation in SR and mitochondria was assayed as described above in the absence and presence of different concentrations of RuR (0.05-100 μM), Ru360 (0.01-100 μM) or AzRu (0.1-100 μM). The concentration required for 50% inhibition (IC50) was derived from the plot of Ca^2+ accumulation activity or ryanodine binding as a function of the reagent concentration. The results are the mean±SEM of 3 to 5 experiments (Table 3).

[6] = test system: mitochondrial uniporter (Ca2+ uptake in mitochondria); assay: Ca2+ uptake/accumulation in isolated mitochondria; assay type: biochemical, rat; details: AzRu 20 μM; mean ± SEM
Experimental: as §2, §3
The effect of AzRu on mitochondrial process of electron transport from the donor succinate to the acceptor cytochrome c was characterized as described above. Although said electron transfer involves several dozens electron transfer carriers, this reaction was not affected by azido-ruthenium of this invention.
as §4

azido-ruthenium [AzRu]
Activity (% of control), Lactate dehydrogenase (Lactate dehydrogenase): 91 ± 4 % of control
Activity (% of control), Catalase (Catalase): 118 ± 8 % of control
Activity (% of control), Alkaline phosphatase (Alkaline phosphatase): 86 ± 5 % of control
Activity (% of control), Ca2+-dependent mitochondrial swelling [1]: 0 % of control
Activity (% of control), Luciferase (Luciferase; AzRu 20 μM): 97 ± 1 % of control
Activity (% of control), Luciferase (Luciferase; AzRu 100 μM): 67 ± 3 % of control
Reduction of STS-activated apoptotic cell death ([2]; 5 h of exposure to STS): about 75%
Reduction of STS-activated apoptotic cell death ([2]; 7 h of exposure to STS): ~47%
Effect on viability of cells not exposed to STS ([2]; U-937 cells, no STS): no effect
Activity (% of control), Succinate-cytochrome c oxido-reductase ([3]; AzRu 100 μM, mean ± SEM): 95 ± 5 % of control
Effect on electron transfer from succinate to cytochrome c in mitochondria ([3]; isolated mitochondria, FIG. 7): not affected
Activity (% of control), CaMKII-dependent GAPDH (CaMKII-dependent GAPDH): 6 ± 2 % of control
Activity (% of control), G-6-P dehydrogenase [4]: 101 ± 7 % of control
Activity (% of control), Choline oxidase (Choline oxidase): 85 ± 3 % of control
Activity (% of control), Pyruvate kinase (Pyruvate kinase; AzRu 20 μM): 97 ± 7 % of control
Activity (% of control), Pyruvate kinase (Pyruvate kinase; AzRu 100 μM): 81 ± 6 % of control
Activity (% of control), Glutamate dehydrogenase (Glutamate dehydrogenase): 101 ± 5 % of control
IC50 ([5]; +UV (photoactivation), mean ± SEM): 1.21 ± 0.06 µM
Activity (% of control), Ryanodine binding by SR RyR ([5]; AzRu 20 μM, mean ± SEM): 18 ± 6 % of control
Effect on binding of ryanodine to SR membranes ([5]; FIG. 8): strongly inhibited
IC50 ([5]; no UV, mean ± SEM of 3 to 5 experiments): 2.9 ± 0.17 µM
Activity (% of control), Ca2+ uptake in mitochondria [6]: 11 ± 4 % of control
